“And” between values parts separate entries of the source, which are not always exact repeats. Identical values can stand only once.
Legend:
[1] = test system: wild-type and Pept2 null mice; assay: Hot-plate test; type: in vivo; conditions: for ED50: icv
PEPT2 = conditions: rat choroid plexus; concentrations 1,000 times in excess; ref Teuscher et al. 2001; cited from earlier work
[2] = test system: opioid peptide transport system; conditions: SK-N-SH cells; ref Thakker et al. 2008; cited from earlier work
rat PEPT2 = conditions: read-out: Ki (PEPT2 inhibitor); LLC-PK1 cells stably transfected with rat PEPT2; ref Terada et al. 2000; cited from earlier work

Molecule	maximum analgesia ([1]; 100 nmol icv, both genotypes)	duration of response to 100 nmol dose ([1]; 100 nmol icv, both genotypes, 40 min experiment)	ED50 ([1]; Pept2 null mice, response at 5 min, estimate ± standard error)	time of maximum analgesia ([1]; after icv injection, both genotypes)	ED50 ([1]; both genotypes (wild-type and Pept2 null))	ED50 ([1]; wild-type mice, response at 5 min, estimate ± standard error)	difference in ED50 between genotypes ([1]; wild-type vs Pept2 null)	effect on the uptake of GlySar (PEPT2)	stimulation of opioid peptide transport system [2]	Ki (rat PEPT2)	effect on the MPE of L-KTP ([1]; bestatin 160 nmol icv with 4 nmol L-KTP, Pept2 null mice, p=0.2931)
L-Tyr-D-Arg [D-KTP]	100 % MPE	fully analgesic throughout the 40 min experiment	9.1 ± 0.8 nmol	5 min	9 to 10 nmol	10.3 nmol and 10.3 ± 1.0 nmol	~ 10%	no effect	little stimulation	–	–
CC(C)C[C@H](NC(=O)[C@@H](O)[C@H](N)Cc1ccccc1)C(=O)O [bestatin]	–	–	–	–	–	–	–	–	–	18 µM	little effect
